Consider 1 compound from patent US5958918A, “Substituted (sulfinic acid, sulfonic acid, sulfonylamino or sulfinylamino) N-[(aminominomethyl)phenylalkyl]-azaheterocyclylamide compounds” (Rhone-Poulenc Rorer Pharmaceuticals Inc., priority 1997, dated 1999).

For the experiment, the target named is factor Xa (Homo sapiens, UniProt P00742). The experiment in a line: Factor Xa inhibitor enzyme assay (purified enzyme, chromogenic peptide-p-nitroanilide substrate; apparent Ki by Cheng-Prusoff). Format: biochemical.

Where a name gives a salt, the structure may show the parent alone.

factor Xa, sequence (P00742 235-488 limits assumed): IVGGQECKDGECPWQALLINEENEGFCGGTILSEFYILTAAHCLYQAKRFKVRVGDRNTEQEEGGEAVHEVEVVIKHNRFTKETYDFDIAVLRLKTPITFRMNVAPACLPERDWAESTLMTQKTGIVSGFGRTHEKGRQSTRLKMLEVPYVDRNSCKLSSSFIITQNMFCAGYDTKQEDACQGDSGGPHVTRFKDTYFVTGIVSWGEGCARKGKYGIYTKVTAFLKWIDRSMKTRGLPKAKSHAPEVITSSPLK
factor Xa, sequence (P00742 41-179 partner limits assumed): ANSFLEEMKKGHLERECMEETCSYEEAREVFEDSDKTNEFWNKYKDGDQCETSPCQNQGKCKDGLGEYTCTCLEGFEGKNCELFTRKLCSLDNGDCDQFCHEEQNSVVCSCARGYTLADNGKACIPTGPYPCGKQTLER
Experimental: Factor Xa Inhibitor: Enzyme Assay Methods
All enzyme assays are carried out at room temperature in 96-well microtiter plates using a final enzyme concentration of 1 nM. The concentrations of factor Xa and thrombin are determined by active site titration and the concentrations of all other enzymes are based on the protein concentration supplied by the manufacturer. […] Compound dilutions are added to wells containing buffer and enzyme and pre-equilibrated for between 5 and 30 minutes. […] Under these conditions, less than 10% of the substrate is utilized in all assays. […] The apparent Ki values are then determined according to the Cheng-Prusoff equation (IC50=Ki [1+[S]/Km]) assuming competitive inhibition kinetics.

For `N=C(N)c1cccc(CN2CC[C@H](NS(=O)(=O)c3ccc(-c4ccccn4)s3)C2=O)c1` [Example 7, 5-Pyrid-2-ylthiophene-2-sulfonic acid {1-[3-(aminoiminomethyl)benzyl]-2-oxopyrrolidin-3-(S)-yl}amide trifluoroacetate], the Ki worked out at 100 nM.
